# Test results reported in ChEMBL document CHEMBL5136977, “Discovery of 1-(5-(1H-benzo[d]imidazole-2-yl)-2,4-dimethyl-1H-pyrrol-3-yl)ethan-1-one derivatives as novel and potent bromodomain and extra-terminal (BET) inhibitors with anticancer efficacy” (Eur J Med Chem, 2022).
# How the values were obtained:
# [1] = Metabolic stability in human liver microsomes assessed as intrinsic clearance incubated for 1 hr by LC-MS/MS analysis; type: ADME, Microsome; settings: read-out: CLH
# [2] = Metabolic stability in monkey liver microsomes assessed as intrinsic clearance incubated for 1 hr by LC-MS/MS analysis; type: ADME, Macaca mulatta, Microsome; settings: rhesus monkey, read-out: CLH
# [3] = Metabolic stability in human liver assessed as intrinsic clearance incubated for 1 hr by LC-MS/MS analysis; type: ADME, tissue-based; settings: read-out: CLH
# [4] = Metabolic stability in rat liver assessed as intrinsic clearance incubated for 1 hr by LC-MS/MS analysis; type: ADME, tissue-based; settings: read-out: CLH
# [5] = Volume of distribution in Sprague-Dawley rat at 1 mg/kg, iv by LC-MS/MS analysis; type: ADME, organism-based; settings: in vivo
# [6] = AUC (0 to infinity) in Sprague-Dawley rat at 10 mg/kg, po by LC-MS/MS analysis; type: ADME, organism-based; set-up: time infinity, dose 10 mg/kg, route po; settings: in vivo
# HCT-15 = assay: Antiproliferative activity against human HCT-15 cells assessed as cell growth inhibition measured after 72 hrs by CellTiter-Glo assay; type: functional
# MV4-11 [7] = assay: Induction of cell cycle arrest in human MV4-11 cells assessed as accumulation of cells at G0/G1 phase at 100 nM incubated for 48 hrs by propidium iodide staining based flow cytometric analysis (reference value: 65.71%); type: functional
# MV4-11 [8] = assay: Induction of cell cycle arrest in human MV4-11 cells assessed as accumulation of cells at G0/G1 phase at 200 nM incubated for 48 hrs by propidium iodide staining based flow cytometric analysis (reference value: 65.71%); type: functional
# [9] = Induction of cell apoptosis in human MV4-11 cells assessed as early apoptotic cells at 200 nM incubated for 48 hrs by Annexin V-FITC/Propidium iodide staining based flow cytometry analysis (reference value: 1.42%); type: functional
# [10] = Induction of cell apoptosis in human MV4-11 cells assessed as […] cells at 1000 nM incubated for 48 hrs by Annexin V-FITC/Propidium iodide staining based flow cytometry analysis (reference value: 96.6%); type: functional
# [11] = Toxicity in BALB/c nude mouse xenografted with human MV4-11 cells assessed as effect on body weight at 20 to 80 mg/kg, po QD administered for 28 consecutive days; type: organism-based; settings: in vivo, 672 h, dose 20-80 mg/kg, time 28 day
compound,measurement,setting,value
CC(=O)c1c(C)[nH]c(-c2nc3cc(N4CCN(C)CC4)ccc3[nH]2)c1-c1ccccc1,microsomal CLint,[1],7.03 µL/min/mg
same,microsomal CLint,[2],16.5 µL/min/mg
same,CLint scaled,[3],6.64 mL/min/kg
same,CLint scaled,[4],37.6 mL/min/kg
same,Vd,[5],3.3 L/kg
same,AUC(0-inf),[6],8050 ng·h/mL
same,GI50,HCT-15,261 nM
same,Activity,MV4-11 [7],75.41%
same,Activity,MV4-11 [8],87.4%
same,Activity,[9],5.31%
same,Activity,[10],48.2%
same,Activity,[11],Non-Toxic
